Read-outs that look alike come from different tables or passages of the source.

Eight compounds from US3956492A, “Pharmaceutical compositions containing a 3-(amino-methylene)-5-phenyl-1,4-benzodiazepin-2-one and method of use” (Boehringer Ingelheim GmbH, priority 1972, dated 1976) can be followed below.

Type in all cases: in vivo
For data set [1], the system named is male NMRI-mice. The data set is described as follows: Anticonvulsive activity, protective effect against the maximum electro-shock-spasm. The settings on record: Mus musculus, po, p.o., 50% protected against tonic extensor component. How it is done: The anticonvulsive activity was tested in terms of the protective effect against the maximum electro-shock-spasm in male NMRI-mice of our own breed with a body weight between 20 and 26 gm analogous to Swinyard, Brown and Goodman [J. Pharmacol. exp. Therap. 106, 319 (1952)]. The animals were exposed to an alternating current of 50 cycles and 50 milliamperes (duration of stimulation 0.2 seconds), where the occurrence of the tonic extensor spasm was valued as positive. After peroral administration of the test compound in the form of a 1% suspension in tylose, the dose (ED50) was graphically determined which protected 50% of the animals against the tonic extensor component of the back extremities after various time intervals.

Data set [2] relates to female NMRI-mice. The data set is described as follows: Muscle-relaxing and sedative activity by the method of Young and Lewis (holding ability in slowly rotating inclined wire-mesh cylinders). To be noted: Mus musculus, po, 50% of animals fall out of cylinders. How it is done:
The muscle-relaxing and sedative activities were tested by the method of Young and Lewis [Science 105, 368 (1947)]on female NMRI-mice of our own breed with a body weight between 20 and 26 gm by means of slowly turning wire-mesh cylinders, inclined at 30° from the vertical (length : 43 cm; diameter : 22 cm; mesh-size of the wire netting : 0.6 cm). After peroral administration of the test compound in the form of a 1% suspension in tylose to groups of 10 mice/dose their holding ability in the slowly rotating cylinders was tested (2 rotations/minute) against a control group. The median effective dose (ED50) was graphically determined which caused 50% of the animals to fall out of the cylinders at various time intervals after administration.

The subject of data set [3] is adult laboratory mice. The experiment in a line: Standard acute toxicity tests. To be noted: group of 10 adult laboratory mice. As for the experimental part:
It should be added that the compounds of the formula I are virtually non-toxic. For instance, by standard acute toxicity tests were determined that even massive doses of 6400 mgm/kg p.o. of compound A or 3200 mgm/kg p.o. of compounds B or C produced no deaths in a group of 10 adult laboratory mice within 14 days.

Data set [4] concerns mice. The experiment in a line: Effect on spontaneous motility (sedative activity). The settings on record: Mus musculus, po, motility decreased by 50% vs control animals. An excerpt: The sedative activity was further determined on mice in terms of the decreasing effect upon the spontaneous motility. The motility of 8 mice per dose of test compound was compared to the motility of 8 control animals; each group was placed into separate motility-measuring cages (diameter : 25 cm), with 10 photoelectric cells in the floor and a light source above the cage. After peroral administration of the test compound the dose was graphically determined which decreased the motility by 50%, compared to the control animals, at various time intervals after administration.

Setting [5] is: 0.5 h, after 30 min., read-out: ED50 after 30 min.
Setting [6] is: 2.5 h, after 150 min., read-out: ED50 after 150 min.
Where [7] appears, read: 5 h, after 300 min., read-out: ED50 after 300 min.
The mark [8] stands for this setting: after 30-60 min., read-out: ED50 after 30-60 min.
Setting [9] is: after 90-120 min., read-out: ED50 after 90-120 min.
[10] abbreviates: after 210-240 min., read-out: ED50 after 210-240 min.
Setting [11] is: after 270-300 min., read-out: ED50 after 270-300 min.
[12] abbreviates: after 90-95 min., read-out: ED50 after 90-95 min.
The mark [13] stands for this setting: after 150-155 min., read-out: ED50 after 150-155 min.

Usually ED50 stands for the midpoint of the dose-response relation. `CN1C(=O)C(=CN)N=C(c2ccccc2Cl)c2cc(I)ccc21` [H, 3-(amino-methylene)-5-(2'-chloro-phenyl)-1,3-dihydro-7-iodo-1-methyl-2H-1,4-benzodiazepin-2-one]: the ED50 in data set [1] (setting [5]) was 38 mg/kg; in data set [1] (setting [6]) it was 30 mg/kg; in data set [1] (setting [7]) it was 16 mg/kg; in data set [2] (setting [8]) it was 2.6 mg/kg; in data set [2] (setting [9]), 1.5 mg/kg; in data set [2] (setting [10]) it was 2.7 mg/kg. In data set [2] (setting [11]), the ED50 was found to be 1.6 mg/kg.

For `CCNC=C1N=C(c2ccccc2Cl)c2cc(Cl)ccc2N(C)C1=O` [C, 3-(ethylamino-methylene)-7-chloro-5-(2'-chloro-phenyl)-1,3-dihydro-1-methyl-2H-1,4-benzodiazepin-2-one], the ED50 in data set [1] (setting [5]) amounted to 200 mg/kg; in data set [1] (setting [6]), 28 mg/kg; in data set [1] (setting [7]), 36 mg/kg; in data set [2] (setting [8]), 2 mg/kg; in data set [2] (setting [9]) it was 3 mg/kg; in data set [2] (setting [10]), 11 mg/kg. For the same compound, the ED50 in data set [2] (setting [11]) was found to be 3 mg/kg. For the same compound, the “deaths within 14 days” value in data set [3] (3200 mgm/kg p.o.) was “no deaths”.

Turning to `CN1C(=O)C(=CN2CCOCC2)N=C(c2ccccc2Cl)c2cc(Cl)ccc21` [A, 7-chloro-5-(2'-chloro-phenyl)-1,3-dihydro-1-methyl-3-(morpholino-methylene)-2H-1,4-benzodiazepin-2-one], the median effective dose (ED50) is 100 mg/kg in data set [1] (setting [5]); 18 mg/kg in data set [1] (setting [6]); 13 mg/kg in data set [1] (setting [7]); 14 mg/kg in data set [2] (setting [8]); 5 mg/kg in data set [2] (setting [9]); 14 mg/kg in data set [2] (setting [10]). In addition, the ED50 in data set [2] (setting [11]) came out at 3 mg/kg. The “deaths within 14 days” value in data set [3] (6400 mgm/kg p.o.) is “no deaths”.

In the case of `NC=C1N=C(c2ccccc2Cl)c2cc(Cl)ccc2NC1=O` [B, 3-(amino-methylene)-7-chloro-5-(2'-chloro-phenyl)-1,3-dihydro-2H-1,4-benzodiazepin-2-one], the median effective dose (ED50) in data set [1] (setting [5]) was found to be 85 mg/kg; in data set [1] (setting [6]) it was 28 mg/kg; in data set [1] (setting [7]), 43 mg/kg; in data set [2] (setting [8]), 13 mg/kg; in data set [2] (setting [9]), 3 mg/kg; in data set [2] (setting [10]) it was 10 mg/kg. For the same compound, the ED50 in data set [2] (setting [11]) is 11 mg/kg. In addition, the “deaths within 14 days” value in data set [3] (3200 mgm/kg p.o.) is reported as “no deaths”.

`CN1C(=O)C(=CN2CCOCC2)N=C(c2ccccc2Cl)c2cc(Br)ccc21` [D, 7-bromo-5-(2'-chloro-phenyl)-1,3-dihydro-1-methyl-3-(morpholino-methylene)-2H-1,4-benzodiazepin-2-one]: the ED50 is 200 mg/kg in data set [1] (setting [5]); 31 mg/kg in data set [1] (setting [6]); 34 mg/kg in data set [1] (setting [7]); 4.4 mg/kg in data set [4] (setting [12]); 5.2 mg/kg in data set [4] (setting [13]); 33 mg/kg in data set [2] (setting [8]). In addition, the ED50 in data set [2] (setting [9]) turned out to be 26 mg/kg; in data set [2] (setting [10]), 16 mg/kg; in data set [2] (setting [11]), 13 mg/kg.

On to `CCNC=C1N=C(c2ccccc2Cl)c2cc(Br)ccc2NC1=O` [G, 3-(ethylamino-methylene)-7-bromo-5-(2'-chloro-phenyl)-1,3-dihydro-2H-1,4-benzodiazepin-2-one], for which the ED50 in data set [1] (setting [5]) was 37 mg/kg; in data set [1] (setting [6]), 8.8 mg/kg; in data set [1] (setting [7]), 22 mg/kg; in data set [4] (setting [12]) it was 1.56 mg/kg; in data set [4] (setting [13]), 2.45 mg/kg; in data set [2] (setting [8]) it was 2.4 mg/kg. Also, the ED50 in data set [2] (setting [9]) worked out at 1.25 mg/kg; in data set [2] (setting [10]), 2.1 mg/kg; in data set [2] (setting [11]), 2.4 mg/kg.

In the case of `NC=C1N=C(c2ccccc2Cl)c2cc(Br)ccc2NC1=O` [F, 3-(amino-methylene)-7-bromo-5-(2'-chloro-phenyl)-1,3-dihydro-2H-1,4-benzodiazepin-2-one], the ED50 in data set [1] (setting [5]) was determined as 70 mg/kg; in data set [1] (setting [6]), 14.5 mg/kg; in data set [1] (setting [7]) it was 16 mg/kg; in data set [4] (setting [12]), 8.15 mg/kg; in data set [4] (setting [13]), 3.76 mg/kg; in data set [2] (setting [8]), 0.5 mg/kg. For the same compound, the results for the ED50 in data set [2] (setting [9]), in data set [2] (setting [10]) and in data set [2] (setting [11]) were 0.7 mg/kg, 0.7 mg/kg and 1.9 mg/kg, respectively.

As for `CN1C(=O)C(=CN)N=C(c2ccccc2Cl)c2cc(Br)ccc21` [Compound E, 3-(amino-methylene)-7-bromo-5-(2'-chloro-phenyl)-1,3-dihydro-1-methyl-2H-1,4-benzodiazepin-2-one], the ED50 in data set [1] (setting [5]) was 18 mg/kg; in data set [1] (setting [6]), 17 mg/kg; in data set [1] (setting [7]) it was 26 mg/kg; in data set [2] (setting [8]), 7 mg/kg; in data set [2] (setting [9]), 7 mg/kg; in data set [2] (setting [10]) it was 5 mg/kg. For the same compound, the ED50 in data set [2] (setting [11]) was 6 mg/kg.
